Measurements as given in the NIST ThermoML archive (doi:10.1016/j.jct.2012.03.003).

Test: xn = mol fraction of the nth substance listed
Details: Liquid, Vibrating tube method

COc1cc2c(cc1O)CC1c3c(cc(O)c(OC)c3-2)CCN1C (stereo not given) [boldine] + CCO
Details	mass density [kg/m3]
313.01 K, 1000 kPa, x1 = 0.0196	817.64
313.01 K, 2000 kPa, x1 = 0.0196	818.47
313.01 K, 3000 kPa, x1 = 0.0196	819.29
313.01 K, 4000 kPa, x1 = 0.0196	820.13
313.01 K, 5000 kPa, x1 = 0.0196	820.98
313.01 K, 6000 kPa, x1 = 0.0196	821.82
313.01 K, 7000 kPa, x1 = 0.0196	822.67
313.01 K, 8000 kPa, x1 = 0.0196	823.53
313.01 K, 9000 kPa, x1 = 0.0196	824.37
313.01 K, 10000 kPa, x1 = 0.0196	825.22
313.01 K, 11000 kPa, x1 = 0.0196	826.07
313.01 K, 12000 kPa, x1 = 0.0196	826.9
313.01 K, 13000 kPa, x1 = 0.0196	827.74
313.01 K, 14000 kPa, x1 = 0.0196	828.55
313.01 K, 15000 kPa, x1 = 0.0196	829.36
313.01 K, 16000 kPa, x1 = 0.0196	830.17
313.01 K, 17000 kPa, x1 = 0.0196	830.96
313.01 K, 18000 kPa, x1 = 0.0196	831.74
313.01 K, 19000 kPa, x1 = 0.0196	832.5
313.01 K, 20000 kPa, x1 = 0.0196	833.23
313.09 K, 1000 kPa, x1 = 0.0012	775.75
313.09 K, 1000 kPa, x1 = 0.0267	829.8
313.09 K, 2000 kPa, x1 = 0.0012	776.61
313.09 K, 2000 kPa, x1 = 0.0267	830.62
313.09 K, 3000 kPa, x1 = 0.0012	777.49
313.09 K, 3000 kPa, x1 = 0.0267	831.43
313.09 K, 4000 kPa, x1 = 0.0012	778.37
313.09 K, 4000 kPa, x1 = 0.0267	832.27
313.09 K, 5000 kPa, x1 = 0.0012	779.27
313.09 K, 5000 kPa, x1 = 0.0267	833.1
313.09 K, 6000 kPa, x1 = 0.0012	780.17
313.09 K, 6000 kPa, x1 = 0.0267	833.94
313.09 K, 7000 kPa, x1 = 0.0012	781.08
313.09 K, 7000 kPa, x1 = 0.0267	834.77
313.09 K, 8000 kPa, x1 = 0.0012	781.99
313.09 K, 8000 kPa, x1 = 0.0267	835.61
313.09 K, 9000 kPa, x1 = 0.0012	782.89
313.09 K, 9000 kPa, x1 = 0.0267	836.46
313.09 K, 10000 kPa, x1 = 0.0012	783.79
313.09 K, 10000 kPa, x1 = 0.0267	837.26
313.09 K, 11000 kPa, x1 = 0.0012	784.7
313.09 K, 11000 kPa, x1 = 0.0267	838.09
313.09 K, 12000 kPa, x1 = 0.0012	785.59
313.09 K, 12000 kPa, x1 = 0.0267	838.91
313.09 K, 13000 kPa, x1 = 0.0012	786.48
313.09 K, 13000 kPa, x1 = 0.0267	839.73
313.09 K, 14000 kPa, x1 = 0.0012	787.35
313.09 K, 14000 kPa, x1 = 0.0267	840.53
313.09 K, 15000 kPa, x1 = 0.0012	788.21
313.09 K, 15000 kPa, x1 = 0.0267	841.33
313.09 K, 16000 kPa, x1 = 0.0012	789.07
313.09 K, 16000 kPa, x1 = 0.0267	842.12
313.09 K, 17000 kPa, x1 = 0.0012	789.89
313.09 K, 17000 kPa, x1 = 0.0267	842.89
313.09 K, 18000 kPa, x1 = 0.0012	790.71
313.09 K, 18000 kPa, x1 = 0.0267	843.66
313.09 K, 19000 kPa, x1 = 0.0012	791.52
313.09 K, 19000 kPa, x1 = 0.0267	844.41
313.09 K, 20000 kPa, x1 = 0.0012	792.31
313.09 K, 20000 kPa, x1 = 0.0267	845.14
313.1 K, 1000 kPa, x1 = 0.0074	788.76
313.1 K, 2000 kPa, x1 = 0.0074	789.61
313.1 K, 3000 kPa, x1 = 0.0074	790.46
313.1 K, 4000 kPa, x1 = 0.0074	791.34
313.1 K, 5000 kPa, x1 = 0.0074	792.21
313.1 K, 6000 kPa, x1 = 0.0074	793.1
313.1 K, 7000 kPa, x1 = 0.0074	793.98
313.1 K, 8000 kPa, x1 = 0.0074	794.88
313.1 K, 9000 kPa, x1 = 0.0074	795.77
313.1 K, 10000 kPa, x1 = 0.0074	796.66
313.1 K, 11000 kPa, x1 = 0.0074	797.53
313.1 K, 12000 kPa, x1 = 0.0074	798.41
313.1 K, 13000 kPa, x1 = 0.0074	799.28
313.1 K, 14000 kPa, x1 = 0.0074	800.14
313.1 K, 15000 kPa, x1 = 0.0074	800.98
313.1 K, 16000 kPa, x1 = 0.0074	801.81
313.1 K, 17000 kPa, x1 = 0.0074	802.63
313.1 K, 18000 kPa, x1 = 0.0074	803.44
313.1 K, 19000 kPa, x1 = 0.0074	804.23
313.1 K, 20000 kPa, x1 = 0.0074	805
313.13 K, 1000 kPa, x1 = 0.0136	801.85
313.13 K, 2000 kPa, x1 = 0.0136	802.69
313.13 K, 3000 kPa, x1 = 0.0136	803.55
313.13 K, 4000 kPa, x1 = 0.0136	804.42
313.13 K, 5000 kPa, x1 = 0.0136	805.28
313.13 K, 6000 kPa, x1 = 0.0136	806.15
313.13 K, 7000 kPa, x1 = 0.0136	807.04
313.13 K, 8000 kPa, x1 = 0.0136	807.92
313.13 K, 9000 kPa, x1 = 0.0136	808.79
313.13 K, 10000 kPa, x1 = 0.0136	809.66
313.13 K, 11000 kPa, x1 = 0.0136	810.53
313.13 K, 12000 kPa, x1 = 0.0136	811.4
313.13 K, 13000 kPa, x1 = 0.0136	812.25
313.13 K, 14000 kPa, x1 = 0.0136	813.1
313.13 K, 15000 kPa, x1 = 0.0136	813.94
313.13 K, 16000 kPa, x1 = 0.0136	814.77
313.13 K, 17000 kPa, x1 = 0.0136	815.58
313.13 K, 18000 kPa, x1 = 0.0136	816.37
313.13 K, 19000 kPa, x1 = 0.0136	817.16
313.13 K, 20000 kPa, x1 = 0.0136	817.92
323.03 K, 1000 kPa, x1 = 0.0012	766.88
323.03 K, 2000 kPa, x1 = 0.0012	767.82
323.03 K, 3000 kPa, x1 = 0.0012	768.76
323.03 K, 4000 kPa, x1 = 0.0012	769.71
323.03 K, 5000 kPa, x1 = 0.0012	770.66
323.03 K, 6000 kPa, x1 = 0.0012	771.62
323.03 K, 7000 kPa, x1 = 0.0012	772.58
323.03 K, 8000 kPa, x1 = 0.0012	773.53
323.03 K, 9000 kPa, x1 = 0.0012	774.49
323.03 K, 10000 kPa, x1 = 0.0012	775.44
323.03 K, 11000 kPa, x1 = 0.0012	776.38
323.03 K, 12000 kPa, x1 = 0.0012	777.32
323.03 K, 13000 kPa, x1 = 0.0012	778.24
323.03 K, 14000 kPa, x1 = 0.0012	779.15
323.03 K, 15000 kPa, x1 = 0.0012	780.06
323.03 K, 16000 kPa, x1 = 0.0012	780.94
323.03 K, 17000 kPa, x1 = 0.0012	781.82
323.03 K, 18000 kPa, x1 = 0.0012	782.68
323.03 K, 19000 kPa, x1 = 0.0012	783.53
323.03 K, 20000 kPa, x1 = 0.0012	784.35
323.04 K, 1000 kPa, x1 = 0.0074	779.9
323.04 K, 1000 kPa, x1 = 0.0196	808.75
323.04 K, 2000 kPa, x1 = 0.0074	780.82
323.04 K, 2000 kPa, x1 = 0.0196	809.64
323.04 K, 3000 kPa, x1 = 0.0074	781.75
323.04 K, 3000 kPa, x1 = 0.0196	810.53
323.04 K, 4000 kPa, x1 = 0.0074	782.68
323.04 K, 4000 kPa, x1 = 0.0196	811.42
323.04 K, 5000 kPa, x1 = 0.0074	783.61
323.04 K, 5000 kPa, x1 = 0.0196	812.32
323.04 K, 6000 kPa, x1 = 0.0074	784.55
323.04 K, 6000 kPa, x1 = 0.0196	813.21
323.04 K, 7000 kPa, x1 = 0.0074	785.48
323.04 K, 7000 kPa, x1 = 0.0196	814.12
323.04 K, 8000 kPa, x1 = 0.0074	786.42
323.04 K, 8000 kPa, x1 = 0.0196	815.02
323.04 K, 9000 kPa, x1 = 0.0074	787.36
323.04 K, 9000 kPa, x1 = 0.0196	815.91
323.04 K, 10000 kPa, x1 = 0.0074	788.29
323.04 K, 10000 kPa, x1 = 0.0196	816.8
323.04 K, 11000 kPa, x1 = 0.0074	789.22
323.04 K, 11000 kPa, x1 = 0.0196	817.69
323.04 K, 12000 kPa, x1 = 0.0074	790.13
323.04 K, 12000 kPa, x1 = 0.0196	818.56
323.04 K, 13000 kPa, x1 = 0.0074	791.03
323.04 K, 13000 kPa, x1 = 0.0196	819.44
323.04 K, 14000 kPa, x1 = 0.0074	791.94
323.04 K, 14000 kPa, x1 = 0.0196	820.29
323.04 K, 15000 kPa, x1 = 0.0074	792.82
323.04 K, 15000 kPa, x1 = 0.0196	821.15
